Results taken from patent US20100048575A1, “NOVEL TETRACYCLIC INHIBITORS OF CYSTEINE PROTEASES, THE PHARMACEUTICAL COMPOSITIONS THEREOF AND THEIR THERAPEUTIC APPLICATIONS” (priority 2006, published 2010).

Target: Cathepsin B (Homo sapiens, UniProt P07858)
Experiment: Cathepsin B activity assay (z-RR-AMC)
Type: biochemical
Settings: 36 μM z-RR-AMC, 3.6 nM enzyme, 30 min pre-incubation, 60 min at 37° C., sigmoidal fit; read-out: cathepB (inhibition of cysteine protease activity)
Description: Cathepsin B was diluted in Cathepsin B buffer (20 mM Tris HCl pH 6.8; 1 mM EDTA; 1 mM DTT). Compounds stocks (100 mM) were stored at −20° C. in DMSO. Compounds were tested at the following final concentrations: 100 μM; 33.3 μM; 11.1 μM; 3.7 μM; 1.23 μM; 412 nM; 137 nM; 45.7 nM; 15.2 nM; 5 nM. Reactions were performed as duplicates in Black LJL 96 well plates (HE microplates; Molecular Devices; 20 μl final reaction volume). The substrate concentration for cathepsin B specificity assay was 36 μM (z-RR-AMC; Calbiochem). The concentration of the enzyme (Cathepsin B) in specificity assays was 3.6 nM. The concentrations were determined in order to perform specificity assays under initial velocities at fixed substrate concentration. Compounds were pre-incubated with enzymes for 30 minutes at 25° C. Reactions were initiated by addition of substrate to the plates containing the enzymes (+/−compounds) diluted in assay buffer. Reactions were incubated for 60 minutes at 37° C. Reactions were stopped by adding acetic acid (100 mM final). Readings were performed on a Pherastar Fluorescent Reader (BMG). δ Emission 380 nm; δ Excitation=460 nm. Data (mean values +/−standard deviation) were analyzed as % of control (no compound) and plotted as percentage versus the Log of the compound concentration using GraphPad (Prism). Data were fitted to a sigmoidal model (variable slope).

IC50 [nM] | Compound
2600 | CON=C1c2ccccc2-c2nn3c(C)nnc3nc21 (mixture of isomers) [5a, 3-Methyl-1,2,3a,4,10-pentaaza-cyclopenta[b]fluoren-9-one O-methyl-oxime]
15800 | CCCCCCCCCCON=C1c2ccccc2-c2nn3nnnc3nc21 (mixture of isomers) [8a, 1,2,3,3a, 4,10-Hexaaza-cyclopenta[b]fluoren-9-one O-decyl-oxime]
300 | C=CCON=C1c2ccccc2-c2nn3nnnc3nc21 (mixture of isomers) [compound 6, 1,2,3,3a,4,10-hexaaza-cyclopenta[b]fluoren-9-one O-allyl-oxime]
3800 | c1ccc(OCCCON=C2c3ccccc3-c3nn4nnnc4nc32)cc1 (mixture of isomers) [8c, 1,2,3,3a,4,10-Hexaaza-cyclopenta[b]fluoren-9-one O-(3-phenoxy-propyl)-oxime]
2100 | COCCON=C1c2ccccc2-c2nn3nnnc3nc21 (mixture of isomers) [8b, 1,2,3,3a, 4,10-Hexaaza-cyclopenta[b]fluoren-9-one O-(2-methoxy-ethyl)-oxime]
890 | ON=C1c2ccccc2-c2nn3nnnc3nc21 (mixture of isomers) [compound 7, 1,2,3,3a,4,10-hexaaza-cyclopenta[b]fluoren-9-one oxime]
6700 | C=CCON=C1c2ccccc2-c2nn3c(CCCC)nnc3nc21 (mixture of isomers) [5d, 3-Butyl-1,2,3a,4,10-pentaaza-cyclopenta[b]fluoren-9-one O-allyl-oxime]
